A short description of data set [1]: pH response of fluorescence. The class given is physicochemical. The conditions noted are these: for fluorescence changes of the Apo probe with pH: Apo (TPEN); for fluorescence changes of the Apo probe with pH / pH range in which fluorescence of the Zn-bound probe is stable: buffers at various pHs; for pH-dependent fluorescence changes: holo and apo forms, physiological pH range (pH 4-8). On the procedure: (§1) Aqueous solutions were prepared by using de-ionized water with resistivity […], obtained using a Milli-Q water purification system. In order to properly compare the photophysical properties of ZincBY-2, ZincBY-3, and ZincBY-4 to ZincBY-1, the photophysical properties of ZincBY-1 we remeasured. […] Stock solutions of ZincBY-1, ZincBY-2, ZincBY-3, and ZincBY-4 were prepared at concentrations of 5 mM and stored at −20° C. in aliquots that were used immediately after thawing for each experiment. Unless otherwise stated, all spectroscopic methods were conducted in aqueous buffer containing 50 mM HEPES (pH 7.2) and 0.1 M KNO3. UV-visible spectra were acquired on a PerkinElmer Lambda 650 UV/Vis spectrophotometer using quartz cuvettes from Starna (1 cm path length, 10 cm path length used in extinction coefficient and quantum yield determination). Fluorescence spectra were acquired using a PerkinElmer LS 55 fluorescence spectrophotometer. For measurements containing zinc, 99.0% ZnNO3 hexahydrate (final concentration 5 μM) was used. For experiments analyzing apo probes, N,N,N′,N′-Tetrakis(2-pyridylmethyl)ethylenediamine (TPEN) (final concentration 5 μM) was added to solution. Quantum Yield and Extinction Coefficient Determination. Quantum yields for apo and holo ZincBY-1, ZincBY-2, ZincBY-3, and ZincBY-4 were determined by plotting absorbance vs. fluorescence intensity of solutions containing ZincBY-1, ZincBY-2, ZincBY-3, or ZincBY-4 at probe concentrations ranging from 50-250 nM. Serial dilution was used to make solutions at different concentrations. Fluorescein dissolved in 0.1 N NaOH was used as the quantum yield standard, using a literature-determined quantum yield of 0.95.^3 For all fluorophore solutions, fluorescence excitation was set at 490 nm and fluorescence emission was integrated from 510 nm to 650 nm. Zinc Dissociation Constant. Fluorescence spectra were recorded using zinc probes (ZincBY-1, ZincBY-2, ZincBY-3, or ZincBY-4; 200 nM) and ZnSO4 (various concentrations). The solutions were equilibrated in the dark for 1 h prior to measurement. The concentration of ZnSO4 was varied from 1 μM to 9 mM in buffer solution (50 mM HEPES and 0.1 M KNO3, and pH 7.2) containing 10 mM EGTA. Free Zn^2+ was calculated according to a previously reported method (Ref. B4; incorporated by reference in its entirety). Data was fit to the following one-site binding equation: F=(FminKd+Fmax[Zn^2+])/(Kd+[Zn^2+]) pH Response. The fluorescence spectra of zinc probes (ZincBY-2, ZincBY-3, or ZincBY-4; 200 nM) wasere measured at various pH values (4.5-11). The following buffers were used at 50 mM concentration with 0.1 M KNO3: NaOAc/AcOH (pH 4.0-4.5), MES (pH 5.0-6.5), HEPES (pH 7.0-8.0), CHES (pH 8.5-9.5), CAPS (pH 10.0-11.0). Metal Ion Response. The fluorescence spectra of zinc probes (ZincBY-2, ZincBY-3, or ZincBY-4; 200 nM) were measured in the presence an excess of metal ion including 1 mM KNO3, 1 mM NaNO3, 1 mM CaSO4, 1 mM MgSO4, 15 μM MnSO4, 15 μM (NH4)2Fe(SO4)2, 15 μM NH4Fe(SO4)2, 15 μM CoSO4, 15 μM NiSO4, 15 μM CuSO4, 15 μM [Cu(CH3CN)4]PF6, 15 μM CdSO4, 15 μM Hg(NO3)2, 15 μM Pb(NO3)2, or 15 μM ZnSO4. The fluorescence spectra were compared to that of ZincBY-2 (200 nM), ZincBY-3 (200 nM), or ZincBY-4 (200 nM) in the presence of 10 μM TPEN. Determination of octanol-water partition coefficients (log P). A log P value for each probe was determined by agitating nanomolar solutions of each probe in a 1:1 mixture of HEPES buffer and 1-octanol. Solutions were allowed to settle for 1 h and then the fluorescence intensity of each phase was measured. Standard curves of the fluorescence of known concentrations of probes in both solutions were used to determine concentrations.

The nature of data set [2]: Photophysical properties in aqueous buffer (UV-visible, fluorescence, quantum yield, extinction coefficient). The conditions noted are these: for λAbs (max) / λEm (max): aqueous buffer pH 7.2; for Extinction Coefficient (ε) / Quantum Yield (Φ): 50 nM to 250 nM probe; for fluorescence turn-on in the presence of zinc: aqueous buffered solutions; for turn-on ratio / increase in brightness in response to zinc: holo vs apo. The class given is physicochemical. Here is the method:
as §1

The mark [3] stands for this setting: remeasured, same as originally reported, state not specified.

Several values for one entry are separate records, joined by “and”; a condition that tells them apart may be missing. Equal entries are not always repeated.

Take `CC(=O)NCCOc1ccc2n1[B-](F)(F)[N+]1=C(N(CCN(Cc3ccccn3)Cc3ccccn3)Cc3ccccn3)C=CC1=C2c1c(C)cc(C)cc1C` [ZincBY-4, N-(2-((7-((2-(bis(pyridin-2-ylmethyl)amino)ethyl)(pyridin-2-ylmethyl)amino)-5,5-difluoro-10-mesityl-5H-5λ4,6λ4-dipyrrolo[1,2-c:2′,1′-f][1,3,2]diazaborinin-3-yl)oxy)ethyl)acetamide]: in data set [1], the “fluorescence changes of the Apo probe with pH” value (“fluorescence changes … with pH” for short) is listed as “largely unaffected by changes in pH”; the “pH range in which fluorescence of the Zn-bound probe is stable” value (“pH range … of the Zn-bound probe is stable” for short) is recorded as 4-8 pH; the pH-dependent fluorescence changes entry is “neither the holo or apo forms of ZincBY-1 and ZincBY-4 show significant changes in fluorescence”. In data set [2] (Apo), the “Brightness (ε*Φ/1000)” value was 1.44(7) M^−1cm^−1, the “Extinction Coefficient (ε)” value was 0.88(4) × 10^4 M^−1cm^−1 and the “λEm (max)” value was 585 nm. For the same compound, the “λAbs (max)” value in data set [2] (Apo (TPEN)) worked out at 572 nm. For the same compound, in data set [2] (Zn-bound), the “Brightness (ε*Φ/1000)” value is recorded as 12.15(34) M^−1cm^−1, the “Extinction Coefficient (ε)” value is listed as 2.12(4) × 10^4 M^−1cm^−1, the “λAbs (max)” value was 482 nm and the “λEm (max)” value worked out at 537 nm. Besides, in data set [2] (apo form), the absorption peaks is 482 nm and 570 nm; the “quantum yield lower compared to ZincBY-1” value is on record as 5%. In data set [2], the “fluorescence turn-on in the presence of zinc” value was 8.4 and the “turn-on ratio / increase in brightness in response to zinc” value is given as 8 fold. For the same compound, the “quantum yield lower compared to ZincBY-1” value in data set [2] (holo form) came to 10%.
Consider `COc1ccc2n1[B-](F)(F)[N+]1=C(N(CCN(Cc3ccccn3)Cc3ccccn3)Cc3ccccn3)C=CC1=C2c1c(C)cc(C)cc1C` [ZincBY-1, reference compound], for which the pH-dependent fluorescence changes entry in data set [1] was “neither the holo or apo forms of ZincBY-1 and ZincBY-4 show significant changes in fluorescence”. In data set [2] (Apo), the “Brightness (ε*Φ/1000)” value was 5.21(72) M^−1cm^−1, the “Extinction Coefficient (ε)” value was 2.42(33) × 10^4 M^−1cm^−1, the “Quantum Yield (Φ)” value is given as 0.215(5) and the “λEm (max)” value is recorded as 559 nm. In addition, in data set [2] (Apo (TPEN)), the “λAbs (max)” value is given as 529 nm. In addition, in data set [2] (Zn-bound), the “Brightness (ε*Φ/1000)” value is on record as 26.97(2.30) M^−1cm^−1; the “Extinction Coefficient (ε)” value is 4.14(33) × 10^4 M^−1cm^−1; the “Quantum Yield (Φ)” value is 0.651(18) and 0.651(2); the “λAbs (max)” value was 532 nm. Besides, the “λEm (max)” value in data set [2] (Zn-bound) worked out at 543 nm. In data set [2], the “fluorescence turn-on in the presence of zinc” value was determined as 5.2 and the “turn-on ratio / increase in brightness in response to zinc” value is “ca. 5 fold”. In data set [2] (both apo and holo states), the “higher brightness on remeasurement compared to the originally reported values” was 10 fold. Further, in data set [2] (setting [3]), the absorption wavelength came out at 533 nm and the emission wavelength is 543 nm.
With `Cc1cc(C)c(C2=C3C=CC(OCCN)=[N+]3[B-](F)(F)n3c2ccc3N(CCN(Cc2ccccn2)Cc2ccccn2)Cc2ccccn2)c(C)c1` [ZincBY-3, N1-(7-(2-aminoethoxy)-5,5-difluoro-10-mesityl-5H-4λ4,5λ4-dipyrrolo[1,2-c:2′,1′-f][1,3,2]diazaborinin-3-yl)-N1,N2,N2-tris(pyridin-2-ylmethyl)ethane-1,2-diamine], in data set [1], the “fluorescence changes … with pH” value is “largely unaffected by changes in pH” and the “pH range … of the Zn-bound probe is stable” value is 4-8 pH. In data set [2] (Apo), the “Brightness (ε*Φ/1000)” value was 1.85(8) M^−1cm^−1, the “Extinction Coefficient (ε)” value was 1.16(4) × 10^4 M^−1cm^−1, the “Quantum Yield (Φ)” value is 0.158(3) and the “λEm (max)” value stood at 585 nm. The “λAbs (max)” value in data set [2] (Apo (TPEN)) worked out at 571 nm. In data set [2] (Zn-bound), the “Brightness (ε*Φ/1000)” value was 12.42(36) M^−1cm^−1, the “Extinction Coefficient (ε)” value was 2.21(5) × 10^4 M^−1cm^−1, the “Quantum Yield (Φ)” value is 0.562(11) and the “λAbs (max)” value was 482 nm. Also, in data set [2] (Zn-bound), the “λEm (max)” value is given as 537 nm.
Turning to `Cc1cc(C)c(C2=C3C=CC(OCCN=[N+]=[N-])=[N+]3[B-](F)(F)n3c2ccc3N(CCN(Cc2ccccn2)Cc2ccccn2)Cc2ccccn2)c(C)c1` [ZincBY-2, N1-(7-(2-azidoethoxy)-5,5-difluoro-10-mesityl-5H-4λ4,5λ4-dipyrrolo[1,2-c:2′,1′-f][1,3,2]diazaborinin-3-yl)-N1,N2,N2-tris(pyridin-2-ylmethyl)ethane-1,2-diamine], in data set [1], the “fluorescence changes … with pH” value is reported as “largely unaffected by changes in pH” and the “pH range … of the Zn-bound probe is stable” value is 4.5-8.0 pH. In addition, in data set [2] (Apo), the “Brightness (ε*Φ/1000)” value is 2.35(58) M^−1cm^−1, the “Extinction Coefficient (ε)” value is recorded as 1.42(35) × 10^4 M^−1cm^−1, the “Quantum Yield (Φ)” value is on record as 0.164(7) and the “λEm (max)” value is 566 nm. Moreover, in data set [2] (Apo (TPEN)), the “λAbs (max)” value was determined as 532 nm. Further, in data set [2] (Zn-bound), the “Brightness (ε*Φ/1000)” value is reported as 13.58(1.93) M^−1cm^−1, the “Extinction Coefficient (ε)” value is listed as 2.57(35) × 10^4 M^−1cm^−1, the “Quantum Yield (Φ)” value is given as 0.529(22) and the “λAbs (max)” value was 532 nm. For the same compound, the “λEm (max)” value in data set [2] (Zn-bound) is listed as 552 nm.

The values are drawn from US11953435B2, “Zinc-responsive fluorophores” (Northwestern University, priority 2019, dated 2024).
